Source: PubChem BioAssay (NCI)
Several values for one entry are separate records, joined by “and”; a condition that tells them apart may be missing. Equal entries are not always repeated.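 Exposure lasted 48 hours, with cells grown in 96-well plates and compounds tested at five concentrations. GI50 marks 50% less growth. The concentration for full growth arrest is given as TGI.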

Key:
Assay in all cases: NCI-60 cell line screen, 48 h
[1] = tested on: A549 NSCLC
[2] = tested on: UO-31 renal
[3] = tested on: CCRF-CEM leukemia
[4] = tested on: OVCAR-3 ovarian
[5] = tested on: NCI/ADR-RES ovarian
[6] = tested on: SK-MEL-2 melanoma
[7] = tested on: U251 CNS
[8] = tested on: KM12 colon
[9] = tested on: K-562 leukemia
[10] = tested on: CAKI-1 renal

SMILES | GI50 [1] | TGI [1] | GI50 [2] | TGI [2] | GI50 [3] | TGI [3] | GI50 [4] | TGI [4] | GI50 [5] [µM] | TGI [5] [µM] | GI50 [6] | TGI [6] | GI50 [7] | TGI [7] | GI50 [8] | TGI [8] | TGI [9] | TGI [10] | GI50 [10] | GI50 [9]
O=C(/C=C/c1cccc(Oc2ccc(Cl)cc2)c1)c1ccccc1 | 138 µM | 298 µM | 17.3 µM | 34.1 µM | 31.6 µM | 384 µM | 21.1 µM | 42.8 µM | 37.1 | 232 | 148 µM | 336 µM | 21.1 µM | 42 µM | 34.9 µM | 125 µM |  |  |  | 
Cc1csc(CCC(N)C(=O)O)n1 (stereo not given) |  | > 100 µM |  | > 100 µM |  | > 100 µM |  | > 100 µM |  |  |  |  |  | > 100 µM |  | > 100 µM | > 100 µM | > 100 µM |  | 
CC(=O)c1c(O)c2c([nH]c1=O)CCCC2 |  | > 100 µM |  | 31.2 µM |  | > 100 µM |  | > 100 µM |  |  |  |  |  | 60.9 µM |  |  | > 100 µM | > 100 µM |  | 
O=C(Nc1ccc(Br)cc1)Nc1cccc(Br)c1 |  |  |  |  |  |  |  |  |  |  | 5.7 µM | > 100 µM |  |  |  |  |  | > 100 µM | > 100 µM | 
Cc1n(Cc2ccc3ccccc3n2)cc[n+]1Cc1ccc2ccccc2c1 | 1.34 µM | 13.4 µM | 13.6 µM | 36.1 µM | 1.07 µM | 11.5 µM | 0.515 µM | 5.1 µM | > 100 | > 100 | 0.522 µM | 2.99 µM | 0.384 µM | 12.2 µM | 0.488 µM | 3.8 µM | 12.9 µM |  |  | 0.422 µM
O=C(Nc1ccc(Cl)c(Cl)c1)C1C(=O)N(c2ccc(Cl)c(Cl)c2)C(=O)/C1=N\O (stereo not given) |  | > 100 µM |  | > 100 µM |  | > 100 µM |  | > 100 µM |  |  |  | > 100 µM |  | > 100 µM |  |  | > 100 µM | > 100 µM |  | 
c1ccc2c(c1)[O][Sn][O]2 | 11 µg/mL | > 150 µg/mL | 12.6 µg/mL | > 150 µg/mL | 1.12 µg/mL | > 150 µg/mL | 10.9 µg/mL | > 150 µg/mL |  |  | 92.6 µg/mL | > 150 µg/mL | > 150 µg/mL | > 150 µg/mL | 21.8 µg/mL | > 150 µg/mL | > 150 µg/mL | > 150 µg/mL | 30.2 µg/mL | 91.6 µg/mL
CC1CCC2c3c([nH]c4ccccc34)C3C(=O)N(c4ccccc4)C(=O)C3C2C1 (stereo not given) | > 250 µM | > 250 µM | 117 µM | > 250 µM | 194 µM | 42 µM and > 250 µM | > 250 µM | > 250 µM |  |  |  | 91.4 µM | 37.5 µM | > 250 µM |  | > 250 µM | 202 µM | > 250 µM |  | 54.8 µM
CCOc1ccc(/C=C2/C(=O)N=C(N)N=C2N)cc1OCC |  | > 100 µM |  | > 100 µM |  | > 100 µM |  | > 100 µM |  |  |  | > 100 µM |  | > 100 µM |  | > 100 µM | > 100 µM | > 100 µM |  | 
CN(C)CCNC(=O)c1cccc2cc3ccc4ccccc4c3nc12 |  | 0.56 µM |  | 0.218 µM |  | 0.267 µM |  | 0.738 µM |  |  |  | 0.406 µM |  | 0.663 µM |  | 1.2 µM | > 100 µM | 2.14 µM |  | 
COc1cc(OC)c(/C=C/C(=O)c2c(N)cc(OC)cc2OC)c(OC)c1 | 0.733 µM | > 100 µM | 1.36 µM | > 100 µM | 1.26 µM | > 100 µM | 0.28 µM | 1.1 µM |  |  | 0.528 µM | > 100 µM | 0.504 µM | > 100 µM | 0.303 µM | 47.9 µM | > 100 µM | > 100 µM | 0.38 µM | 0.305 µM
C=C(C)[C@@H]1CC[C@]2(C(=O)n3ccnc3)CC[C@]3(C)[C@H](CC[C@@H]4[C@@]5(C)CCCNC(C)(C)[C@@H]5CC[C@]43C)[C@@H]12 | 1.94 µM | 3.62 µM | 1.38 µM | 2.72 µM | 1.88 µM | 4.48 µM | 1.67 µM | 3.14 µM | 1.7 | 3.66 |  |  | 1.7 µM | 3.14 µM | 1.68 µM | 3.11 µM |  |  |  | 
O=C1c2ccccc2-c2c1c1ccc([N+](=O)[O-])cc1c(=O)n2CCCCl | > 100 µM | > 100 µM | 6.4 µM | > 100 µM |  |  | 4.91 µM | 77 µM | 24.1 | > 100 | > 100 µM | > 100 µM | 3.08 µM | > 100 µM | > 100 µM | > 100 µM | > 100 µM | > 100 µM | 2.45 µM | 25.7 µM
Nc1c(C(=O)Nc2ccccc2O)[n+]([O-])c2ccccc2[n+]1[O-] |  | > 100 µM |  | > 100 µM |  |  |  | > 100 µM |  |  |  | > 100 µM |  | > 100 µM |  | > 100 µM | > 100 µM | > 100 µM |  | 
CN1CCOCCOCCOc2ccccc2NC(=O)c2nc(cnc2N)-c2ccc(cc2)S1(=O)=O |  |  |  |  |  |  |  |  |  |  |  |  | 5.16 µM | > 100 µM |  |  |  |  |  | 
CCOC(=O)C1=CSC2=NC3=C(CCC/C3=C\c3cc(OC)c(OC)c(OC)c3)C(c3cc(OC)c(OC)c(OC)c3)N12 (stereo not given) |  |  |  |  | 0.47 µM | 3.74 µM | 2.96 µM | > 100 µM |  |  | > 100 µM | > 100 µM |  |  |  |  |  | > 100 µM | 6.77 µM | 
Cn1cc(NC(=O)c2cc(NC(=O)CCCCCCCC(=O)Nc3cc(C(=O)Nc4cc(C(=O)NCCC(=N)N)n(C)c4)n(C)c3)cn2C)cc1C(=O)NCCC(=N)N |  | 36.8 µM |  | > 100 µM |  | 86.1 µM |  | 65.7 µM |  |  |  | 27.9 µM |  | 44.6 µM |  | 20 µM | > 100 µM | 47.5 µM |  | 
O=C(Nc1nc2c(s1)CCc1c-2c(Br)n(Cc2ccccc2)c1Br)c1ccccc1 | 3.12 µM | 23.1 µM | 3.19 µM | 39.9 µM |  |  | 4.24 µM | 17.3 µM | 21 | > 100 | 3.47 µM | 19.6 µM | 3.42 µM | 11.3 µM | 6.19 µM | > 100 µM | > 100 µM | > 100 µM | 9.89 µM | 22.9 µM
O=c1[nH]c(=O)n(C2CC(O)C(O)C(CO)O2)cc1F (stereo not given) |  | > 100 µM |  | > 100 µM |  | > 100 µM |  | > 100 µM |  |  |  | > 100 µM |  | > 100 µM |  | > 100 µM | > 100 µM |  |  | 
